The structures appear in SMILES notation. Several values for one entry are separate records, joined by “and”; a condition that tells them apart may be missing. Equal entries are not always repeated. Where two headings read alike, the source gives them in different places.

Series [1] relates to normal menstruating women. As to the kind of experiment: Pilot study of MEL 15 mg for 5 days in 3 normal menstruating women. The series is classed as in vivo, human. As for the experimental part: A pilot study was performed using MEL 15 mg for 5 days in 3 normal menstruating women with a control no treatment but monitored cycle and a treatment cycle. Treatment was initiated when the participant was within one day of anticipated LH surge based on the control cycle.

For series [2] the following is noted: cited from earlier work.
The test system of series [3] is women. The following applies: cited from earlier work; for serious adverse effects/events: general statement.
The subject of series [4] is women. The following applies: emergency contraception; cited from earlier work.
Setting [5] is: 15 mg, 12 week rheumatoid arthritis placebo controlled trial, Mobic label.
[6] abbreviates: oral 15 mg for 5 days in normal women.
[7] abbreviates: 1.5 mg single dose, n=1359 women, Plan B One Step label.

In the case of `Cc1cnc(NC(=O)C2=C(O)c3ccccc3S(=O)(=O)N2C)s1` [Meloxicam, meloxicam], the “effect on the LH surge dynamics” value in series [1] is “no effect”. Also, the “time to steady state concentration” value in series [2] (15 mg daily) is “three to five”. Besides, the “time of peak serum levels” value in series [2] (depending upon food intake) is on record as “five or six”. In series [2] (in vivo), the enzyme principally metabolizing entry is “CYP2C9”. Besides, in the series with women [3] (15 mg taken daily for 18 days), the “incidence of adverse events” value was 33.7% and the serious adverse events entry is listed as “no serious adverse events reported”. In the series on women [3] (setting [5]), the abdominal pain is 2.6%, the dizziness was 3.8%, the dyspepsia is given as 4.5% and the edema is 4.5%. Besides, in the series on women [3] (setting [5]), the headache is reported as 8.3%, the nausea is recorded as 3.8% and the skin rash is listed as 0.6%. Also, the serious adverse effects/events result with women [3] is “rare”. For the same molecule, in the series with women [3] (setting [6]), the adverse events was 27.3%, the bloating is 4.5%, the hot flushes is listed as 9.0% and the low abdominal pain was 13.6%.
`CC(=O)O[C@]1(C(C)=O)CC[C@H]2[C@@H]3CCC4=CC(=O)CCC4=C3[C@@H](c3ccc(N(C)C)cc3)C[C@@]21C` [ulipristal acetate]: the “preventing pregnancy as interval from unprotected intercourse to use increases” value in the series on women [4] is given as “superior to LNG”.
With `C#C[C@]1(O)CC[C@H]2[C@@H]3CCC4=CC(=O)CC[C@@H]4[C@H]3CC[C@@]21CC` [Levonorgestrel, levonorgestrel], the “mean peak blood level” value in series [2] (1.5 mg, immunoassay methodology) is given as 18 ng/mL. Also, in series [2] (in vivo), the “absorption from the gastrointestinal tract” value is listed as “almost completely absorbed”, the enzyme principally metabolizing entry was “CYP3A4” and the estimated serum half-life is 27.5 h. The “mean peak serum level” value in series [2] (two different laboratories, liquid chromatography and tandem mass spectrometry) is 18.3 ng/mL and 10.2 ng/mL. In the series on women [3] (setting [7]), the breast tenderness is listed as 8.2%, the “delay of menses >7 days” value is on record as 4.5%, the dizziness is 9.6% and the fatigue is given as 13.3%. In the series with women [3] (setting [7]), the headache is 10.3%, the heavy menstrual bleeding is reported as 30.9%, the lower abdominal pain is recorded as 13.3% and the nausea is 13.7%. Besides, the serious adverse effects/events result in the series on women [3] (listed as LNG) is “have not been reported”.

The record behind these values is US20260115205A1, “ON DEMAND FEMALE CONTRACEPTIVE” (priority 2021, published 2026).
